This data set relates to L929 cells. Briefly: Cytotoxicity test using L929 cells. The data set is classed as cell-based. Here is the method:
FIG. 1 is a graph showing the result of a cytotoxicity test on three compounds related to the synthesis of a citric acid derivative (CAD).
A cytotoxicity test was carried out in the following manner. As one example of the low-molecular-weight derivative serving as the hardening component, a biological low-molecular-weight derivative (CAD) was synthesized by modifying three carboxyl groups of a citric acid with N-hydroxysuccinimide (HOSu), and a cytotoxicity test was performed using L929 cells and the synthesized CAD. The number of cells in a sample added with no CAD was defined as 100%.
On to `O=C(CC(O)(CC(=O)ON1C(=O)CCC1=O)C(=O)ON1C(=O)CCC1=O)ON1C(=O)CCC1=O` [CAD], for which the “cytotoxicity (number of cells; sample added with no CAD defined as 100%)” value is given as “extremely low toxicity”.

As for `O=C1CCC(=O)N1O` [HOSu, N-hydroxysuccinimide], the “cytotoxicity (number of cells; sample added with no CAD defined as 100%)” value is recorded as “extremely low toxicity”.

`O=C(O)CC(O)(CC(=O)O)C(=O)O` [citric acid]: the “cytotoxicity (number of cells; sample added with no CAD defined as 100%)” value is “extremely low toxicity”.

(Values after patent US20060239958A1, “Biodegradable and pressure-sensitive material for medical use” (priority 2003, published 2006).)
